Among the data in patent US10258603B2 (priority 2014, dated 2019) are IC50 values, retold here.

SMILES strings stand for the structures. pIC50: −log10 of the molar value.

In the first test the target is T1, CECR2 (Homo sapiens, UniProt Q9BXF3).
T1 construct: 424-538 was cloned, expressed, and purified to homogeneity; Flag; made in house
T1 sequence (Q9BXF3 424-538 limits assumed): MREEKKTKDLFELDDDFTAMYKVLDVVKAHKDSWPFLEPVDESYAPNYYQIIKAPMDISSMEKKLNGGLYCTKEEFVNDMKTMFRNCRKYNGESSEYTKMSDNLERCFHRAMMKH
Description: CECR2 TR-FRET Binding Assay. The note with it: IC50 (uM). The source says:
IC50 Measurements for Inhibitors Using CECR2 TR-FRET Binding Assay
(In general: In TR-FRET formats the signal depends on donor and acceptor labels being close together.)
Turning to `CC(C)N1CCC(N(C)C(=O)c2cn(C)c(=O)c3[nH]ccc23)CC1` [Example 41, N-(1-isopropyl-4-piperidyl)-N,6-dimethyl-7-oxo-1H-pyrrolo[2,3-c]pyridine-4-carboxamide], the IC50 turned out to be 0.77 µM.

Still in this test, the particulars now being: read-out: IC50.
Take `CC(C)N1CC[C@@H](NC(=O)c2cn(C)c(=O)c3[nH]ccc23)[C@H](C)C1` (relative stereo) [Example 239]: the pIC50 was 5.64. Take `C=CCn1cc(C(=O)N2CCN(c3ccc(F)cc3)CC2C(N)=O)c2cc(C)[nH]c2c1=O` (single isomer, unassigned) [Example 273, 1-(6-allyl-2-methyl-7-oxo-6,7-dihydro-1H-pyrrolo[2,3-c]pyridine-4-carbonyl)-4-(4-fluorophenyl)piperazine-2-carboxamide]: the pIC50 was 5.31.

For the molecule `C=CCn1cc(C(=O)N2CCN(c3ccc(F)cc3)CC2C(N)=O)c2cc(C)[nH]c2c1=O` (single isomer, unassigned) [Example 274, 1-(6-allyl-2-methyl-7-oxo-6,7-dihydro-1H-pyrrolo[2,3-c]pyridine-4-carbonyl)-4-(4-fluorophenyl)piperazine-2-carboxamide], the pIC50 is 7.13. On the same count and under the same terms, in the case of `C=CCn1cc(C(=O)N(C)C2CCC(C)(C)c3ccccc32)c2cc(C)[nH]c2c1=O` (single isomer, unassigned) [Example 279] it was 7.92; in that of `C=CCn1cc(C(=O)N(C)C2CCC(C)(C)c3ccccc32)c2cc(C)[nH]c2c1=O` (single isomer, unassigned) [Example 280], 7.31. The same measure, in the same setting: the value for `C=CCn1cc(C(=O)N(C)C2CCCc3cc(OC)ccc32)c2cc(C)[nH]c2c1=O` (single isomer, unassigned) [Example 281] was 7.49; that for `C=CCn1cc(C(=O)N(C)C2CCCc3cc(OC)ccc32)c2cc(C)[nH]c2c1=O` (single isomer, unassigned) [Example 282] was 7.17; that for `C=CCn1cc(C(=O)N(C)C2CCCc3c(F)cccc32)c2cc(C)[nH]c2c1=O` (single isomer, unassigned) [Example 286] was 7.39. Still for that read-out and setting: in the case of `C=CCn1cc(C(=O)N(C)C2CCCc3ccc(C)cc32)c2cc(C)[nH]c2c1=O` (single isomer, unassigned) [Example 287] it was 7.08; in that of `C=CCn1cc(C(=O)N(C)C2CCCc3c(OC)cccc32)c2cc(C)[nH]c2c1=O` (single isomer, unassigned) [Example 288], 7.39.

In the case of `C=CCn1cc(C(=O)N(C)C2CCCc3c(OC)cccc32)c2cc(C)[nH]c2c1=O` (single isomer, unassigned) [Example 289], the pIC50 was 7.35. As for `C=CCn1cc(C(=O)N(C)C2CCCc3ccncc32)c2cc(C)[nH]c2c1=O` (single isomer, unassigned) [Example 290], the pIC50 was 7.30. Same read-out and setting: in the case of `C=CCn1cc(C(=O)N(C)C2CCCc3ccncc32)c2cc(C)[nH]c2c1=O` (single isomer, unassigned) [Example 291] it was 6.85; in that of `CC(CN(C)C)NC(=O)c1cn(C)c(=O)c2[nH]ccc12` (stereo not drawn) [Example 2, N-[2-(dimethylamino)-1-methyl-ethyl]-6-methyl-7-oxo-1H-pyrrolo[2,3-c]pyridine-4-carboxamide], 4.85. Consider `CN(C)C1CCC(NC(=O)c2cn(C)c(=O)c3[nH]ccc23)CC1` (stereo not drawn) [Example 21, N-[4-(dimethylamino)cyclohexyl]-6-methyl-7-oxo-1H-pyrrolo[2,3-c]pyridine-4-carboxamide], for which the pIC50 is 6.05. The same measure, in the same setting: the value for `CC(C)N1CCC(CN(C)C(=O)c2cn(C)c(=O)c3[nH]ccc23)C1` (stereo not drawn) [Example 23, N-[(1-isopropylpyrrolidin-3-yl)methyl]-N,6-dimethyl-7-oxo-1H-pyrrolo[2,3-c]pyridine-4-carboxamide] was 5.68. On the same count and under the same terms, the value for `CC1CCN(CCNC(=O)c2cn(C)c(=O)c3[nH]ccc23)CC1` [Example 26, 6-methyl-N-[2-(4-methyl-1-piperidyl)ethyl]-7-oxo-1H-pyrrolo[2,3-c]pyridine-4-carboxamide] was 5.49. On the same count and under the same terms, in the case of `CC1CCCCN1CCCNC(=O)c1cn(C)c(=O)c2[nH]ccc12` (stereo not drawn) [Example 29, 6-methyl-N-[3-(2-methyl-1-piperidyl)propyl]-7-oxo-1H-pyrrolo[2,3-c]pyridine-4-carboxamide] it was 5.74.

On to `Cn1cc(C(=O)NCCN2CCC(O)CC2)c2cc[nH]c2c1=O` [Example 30, N-[2-(4-hydroxy-1-piperidyl)ethyl]-6-methyl-7-oxo-1H-pyrrolo[2,3-c]pyridine-4-carboxamide], for which the negative-log IC50 (pIC50) is 5.42. The same measure, in the same setting: the value for `Cn1cc(C(=O)NCCN2CCS(=O)(=O)CC2)c2cc[nH]c2c1=O` [Example 37, N-[2-(1,1-dioxo-1,4-thiazinan-4-yl)ethyl]-6-methyl-7-oxo-1H-pyrrolo[2,3-c]pyridine-4-carboxamide] was 5.51; that for `Cn1cc(C(=O)N2CCC(N3CCCCC3)CC2)c2cc[nH]c2c1=O` [Example 59, 6-methyl-4-[4-(1-piperidyl)piperidine-1-carbonyl]-1H-pyrrolo[2,3-c]pyridin-7-one] was 6.05; that for `CN(C)C1CCN(C(=O)c2cn(C)c(=O)c3[nH]ccc23)C1` (stereo not drawn) [Example 60, 4-[3-(dimethylamino)pyrrolidine-1-carbonyl]-6-methyl-1H-pyrrolo[2,3-c]pyridin-7-one] was 4.99.

Take `CN1CCN(C2CCN(C(=O)c3cn(C)c(=O)c4[nH]ccc34)CC2)CC1` [Example 61, 6-methyl-4-[4-(4-methylpiperazin-1-yl)piperidine-1-carbonyl]-1H-pyrrolo[2,3-c]pyridin-7-one]: the pIC50 was 6.00.

In the case of `CC1CCN(C2CCN(C(=O)c3cn(C)c(=O)c4[nH]ccc34)CC2)CC1` [Example 62, 6-methyl-4-[4-(4-methyl-1-piperidyl)piperidine-1-carbonyl]-1H-pyrrolo[2,3-c]pyridin-7-one], the pIC50 was 5.82. Still for that read-out and setting: the value for `CC1CCN(C(=O)c2cn(C)c(=O)c3[nH]ccc23)CC1` [Example 65, 6-methyl-4-(4-methylpiperidine-1-carbonyl)-1H-pyrrolo[2,3-c]pyridin-7-one] was 5.85; that for `COC1CCN(C(=O)c2cn(C)c(=O)c3[nH]ccc23)CC1` [Example 66, 4-(4-methoxypiperidine-1-carbonyl)-6-methyl-1H-pyrrolo[2,3-c]pyridin-7-one] was 5.62; that for `CC1CCCN(C2CCN(C(=O)c3cn(C)c(=O)c4[nH]ccc34)CC2)C1` (stereo not drawn) [Example 67, 6-methyl-4-[4-(3-methyl-1-piperidyl)piperidine-1-carbonyl]-1H-pyrrolo[2,3-c]pyridin-7-one] was 5.74.

Take `Cn1cc(C(=O)N2CCC(C(C)(C)O)CC2)c2cc[nH]c2c1=O` [Example 68, 4-[4-(1-hydroxy-1-methyl-ethyl)piperidine-1-carbonyl]-6-methyl-1H-pyrrolo[2,3-c]pyridin-7-one]: the pIC50 was 5.52. Same read-out and setting: the value for `Cn1cc(C(=O)N2CCC(Cc3ccc(F)cc3)CC2)c2cc[nH]c2c1=O` [Example 69, 4-[4-[(4-fluorophenyl)methyl]piperidine-1-carbonyl]-6-methyl-1H-pyrrolo[2,3-c]pyridin-7-one] was 6.35.

Turning to `COCC1CCN(C(=O)c2cn(C)c(=O)c3[nH]ccc23)CC1` [Example 72, 4-[4-(methoxymethyl)piperidine-1-carbonyl]-6-methyl-1H-pyrrolo[2,3-c]pyridin-7-one], the pIC50 is 5.66. Still for that read-out and setting: in the case of `Cn1cc(C(=O)N2CCC3(CC2)COC3)c2cc[nH]c2c1=O` [Example 73, 6-methyl-4-(2-oxa-7-azaspiro[3.5]nonane-7-carbonyl)-1H-pyrrolo[2,3-c]pyridin-7-one] it was 5.60; in that of `CN(C)C(=O)C1CCN(C(=O)c2cn(C)c(=O)c3[nH]ccc23)CC1` [Example 74, N,N-dimethyl-1-(6-methyl-7-oxo-1H-pyrrolo[2,3-c]pyridine-4-carbonyl)piperidine-4-carboxamide], 5.23; in that of `Cn1cc(C(=O)N2CCC(CO)CC2)c2cc[nH]c2c1=O` [Example 75, 4-[4-(hydroxymethyl)piperidine-1-carbonyl]-6-methyl-1H-pyrrolo[2,3-c]pyridin-7-one], 5.32.

Take `Cn1cc(C(=O)N2CCC(CCc3ccncc3)CC2)c2cc[nH]c2c1=O` [Example 76, 6-methyl-4-[4-[2-(4-pyridyl)ethyl]piperidine-1-carbonyl]-1H-pyrrolo[2,3-c]pyridin-7-one]: the pIC50 was 6.46. Still for that read-out and setting: the value for `Cn1cc(C(=O)N2CCC(N3CCCC3)CC2)c2cc[nH]c2c1=O` [Example 77, 6-methyl-4-(4-pyrrolidin-1-ylpiperidine-1-carbonyl)-1H-pyrrolo[2,3-c]pyridin-7-one] was 5.57; that for `CC1CN(C(=O)c2cn(C)c(=O)c3[nH]ccc23)CCC1N(C)C` (stereo not drawn) [Example 78, 4-[4-(dimethylamino)-3-methyl-piperidine-1-carbonyl]-6-methyl-1H-pyrrolo[2,3-c]pyridin-7-one] was 5.00; that for `CCN(CC)C1CCN(C(=O)c2cn(C)c(=O)c3[nH]ccc23)CC1` [Example 79, 4-[4-(diethylamino)piperidine-1-carbonyl]-6-methyl-1H-pyrrolo[2,3-c]pyridin-7-one] was 5.29. The same measure, in the same setting: in the case of `Cc1cccc(NC(=O)c2cn(C)c(=O)c3[nH]ccc23)c1` [Example 80, 6-methyl-N-(m-tolyl)-7-oxo-1H-pyrrolo[2,3-c]pyridine-4-carboxamide] it was 6.29; in that of `Cn1cc(C(=O)Nc2cccc(CN3CCOCC3)c2)c2cc[nH]c2c1=O` [Example 113], 6.51; in that of `CN(C(=O)c1cn(C)c(=O)c2[nH]ccc12)C1CCN(c2ccncn2)CC1` [Example 139, N,6-dimethyl-7-oxo-N-(1-pyrimidin-4-yl-4-piperidyl)-1H-pyrrolo[2,3-c]pyridine-4-carboxamide], 6.62. On the same count and under the same terms, in the case of `Cc1cnc(N2CCC(N(C)C(=O)c3cn(C)c(=O)c4[nH]ccc34)CC2)nc1` [Example 140, N,6-dimethyl-N-[1-(5-methylpyrimidin-2-yl)-4-piperidyl]-7-oxo-1H-pyrrolo[2,3-c]pyridine-4-carboxamide] it was 6.47.

As a reminder, the IC50 is the concentration that gives 50% inhibition. By pIC50 is commonly meant the IC50 on a negative log10 scale, so that one unit is a factor of ten.
